Source: patent publication US6472390B1, “Use of therapeutic dosages for nitric oxide donors which do not significantly lower blood pressure or pulmonary artery pressure” (Duke University, priority 2001, dated 2002)

What was measured:
[1] = test system: patient with poorly controlled asthma; assay: patient with poorly controlled asthma (Example IX); assay type: in vivo, human
Description: A person with poorly controlled asthma presents with an exacerbation. […] The frequency of asthma exacerbations decline.

[2] = test system: patient receiving erythropoietin who develops chest pain; assay: patient on erythropoietin with chest pain, NO donor infusion (Example XX); assay type: in vivo, human; settings: infusion 1-10 nmolkg/min
Description: A person receiving erythropoietin to raise red blood count depleted because of treatment for cancer or renal failure, develops chest pain (caused by increased concentration of red blood cells).

rats = assay: infusion into rats, mean arterial blood pressure and heart rate (Example IV); assay type: in vivo, rat
Description: Rats (n=4) were infused via femoral vein with 200 nmol/kg of S-nitrosothiol (S-nitrosohemoglobin). Mean arterial blood pressure (MAP) and heart rate (HR) were measured.
In another case, rats (n=4) were infused via femoral artery with 200 nmol/kg of S-nitrosothiol (S-nitrosohemoglobin). Mean arterial blood pressure (MAP) and heart rate (HR) were measured.

dogs = assay: systemic infusion of NO donor into dogs, systemic blood pressure (Example VI); assay type: in vivo, dog; settings: without and with ischemia, S-nitrosocysteine 3 nmol/kg or S-nitrosoalbumin 10 nmol/kg infused systemically
Description: In another case, S-nitrosocysteine (3 nmol/kg) or S-nitrosoalbumin (10 nmol/kg) is infused systemically into dogs. […] The response to S-nitrosoalbimim infusion is no different. The infusions of NO donors result in reaction with membrane receptors in red blood cells.

[3] = test system: artery rings from New Zealand white rabbits; assay: vascular ring bioassay on rabbit artery rings (Example II); settings: NO donor 1 μM
Description: A vascular ring bioassay was carried out as follows: Artery rings (3 mm) were harvested from New Zealand white rabbits and mounted in 25 ml tissue baths filled with Krebs-Henseleit buffer and bubbled with 21% O2/5% CO2/balance N2. Isometric tension was measured. All rings in the study were suspended with similar baseline levels of tension (˜2 g). Tissue baths were thoroughly rinsed with fresh buffer between interventions. Three runs were carried out. In one run denoted the control, no additive was added. […] In a third run, SIN1 was added to provide a concentration of 1 μM. […] After flushing with solution as described in Example I, phenylephrine was then added in each case to provide a concentration of 1 to 10 μM. The results are shown in FIG. 2 where percent increase in tone is indicated on the Y-axis and additive or absence thereof (control) is indicated on the X-axis.

[4] = test system: patient with symptoms of depression; assay: patient with depression (Example XIV); assay type: in vivo, human
Description: A person presents with symptoms of depression. They are begun on oral molsidomine (SIN-1) 10 μg per kg dose-adjusted so that blood pressure is unchanged. Over the following three weeks the symptoms of depression resolve and the patient is maintained on this dose with no recurrence.

[5] = test system: isolated buffer-perfused lungs (IPL) of rabbits; assay: isolated buffer-perfused rabbit lung, pulmonary artery pressure (Example III); settings: for change in mean pulmonary artery pressure (Ppa) on injection of NO donor: GSNO 50 μM or SIN1 100 μM injected into the recirculating system; for constriction (change in Ppa) by serotonin: serotonin 1 micromolar sixty minutes after GSNO 50 μM or SIN1 100 μM
[6] = test system: patient with claudication and a leg ulcer; assay: patient with claudication and leg ulcer (Example XV); assay type: in vivo, human
Description: A person with risk factors of hypertension, diabetes, and hypercholestolemia and a strong family history of atherosclerosis presents with claudication and a leg ulcer. They are begun on an infusion of (SIN-1) 0.3 μm/kg per hour for a total of 1 mg with no change in blood pressure. Symptoms of rest pain resolve. They are then begun on oral S-nitrosoglutathione 1-10 μg 3×/day with improvement of duration of exercise and no recurrence of rest pain.

[7] = test system: infant with pyloric stenosis; assay: infant with pyloric stenosis (Example XII); assay type: in vivo, human; settings: 2 cc of 0.125% in ethanol 3×/day
Description: An infant with pyloric stenosis is given 2 cc of 0.125% ethyl nitrite in ethanol 3×/day.
Symptoms of intestinal pain resolve.

[8] = test system: patient with uncontrolled hypertension; assay: patient with uncontrolled hypertension (Example XVI); assay type: in vivo, human; settings: for exacerbation on maintenance: maintained on GSNO together with ethyl nitrite; for blood pressure (acute): oral GSNO 1 to 10 micrograms QID together with ethyl nitrite 0.025% (1 cc) 3×/day; for blood pressure (acute) / blood pressure: baseline 200/110; for blood pressure: over the following two weeks, GSNO together with ethyl nitrite
Description: A person with uncontrolled hypertension of 200/90 mm of mercury on a complex medical regimen including angiotension converting enzyme inhibitor, an alpha blocker, and beta blocker has a blood pressure of 200/110. They are begun on oral GSNO at 1 to 10 micrograms QID and ethyl nitrite 0.025% (1 cc) 3×/day. […] However, over the following two weeks the blood pressure falls to 170/100 consistent with better management of their disease.

[9] = test system: patient with recurrent rectal spasm; assay: patient with recurrent rectal spasm (Example X); assay type: in vivo, human
Description: A person with recurrent rectal spasm is given oral ethyl nitrite 0.125% in ethanol (1 cc) 3×/day. […] They then continued on this therapy with a decrease in incidence of rectal pain.

[10] = test system: patient with esophageal spasm; assay: patient with esophageal spasm (Example XI); assay type: in vivo, human
Description: A alcoholic with esophageal spasm is given 2 cc of 0.125% ethyl nitrite in ethanol 3×/day.

mouse aorta rings = assay: vascular ring bioassay on mouse aorta rings (Example I)
Description: The assay involves a chamber of solution into which mouse aorta ring attached to a force transducer is placed where the solution is bubbled with 21% O2/5% CO2/balance N2. The force transducer moves a pen in response to contraction and relaxation effects to give a tracing of forces (tension) in the Y-direction versus time in the X-direction on a chart. Various agents as described later are applied to the aorta rings to give to give contraction and relaxation effects. Tracings of force (tension) in the Y-direction versus time in the X-direction are obtained with upward direction indicating contraction and downward direction indicating relaxation. […] On FIG. 1, “E” means application of phenylephrine, a constricting agent, and the concentrations thereof at particular times are denoted; “ACh” means application of acetyIcholine (which causes a relaxation effect in response to endogenous nitric oxide) and the concentration thereof at particular times are denoted; and “GSNO” means application of S-nitrosoglutathione, an NO donor, and the concentrations thereof at particular times are denoted. […] As further shown in FIG. 1, flushing is then carried out three times then and one more time; the flushing is carried out (with Krebs-Henseleit solution described hereinafter in Example III) and removes the acetylcholine. As further shown in FIG. 1, phenylephrine is then applied starting at a concentration of 10^−7 molar increasing to a concentration of 10^−5.5 molar. […] As further shown in FIG. 1, flushing is then carried out three times (with Krebs-Henseleit solution); and then one more time with the same flushing agent; this flushing removes the S-nitrosoglutathione.

[11] = test system: patient with anxiety and stress; assay: patient with anxiety and stress (Example XVIII); assay type: in vivo, human; settings: ½ to 1 inch patch 3×/day titrated to avoid change in blood pressure or headache
[12] = regardless of dosage; cited from earlier work
[13] = test system: patient with recurrent episodes of acute vasospastic angina; assay: patient with acute vasospastic angina (Example VII); assay type: in vivo, human
Description: A person who complains of recurrent episodes of acute vasospastic angina is treated with S-nitrosoglutathione (GSNO) at 1-1,000 μg orally 4×/day. Blood pressure is unchanged and acute symptoms resolve. In addition, the frequency of vasospastic chest pain decreases over the following three weeks.

[14] = test system: patient with severe three vessel disease; assay: patient with severe three vessel coronary disease (Example XVII); assay type: in vivo, human; settings: oral, titrated so that resting systolic blood pressure does not change; three years
Description: They do well with no symptoms of coronary disease over the following three years.

[15] = test system: patient with primary pulmonary hypertension class II; assay: patient with primary pulmonary hypertension (Example VIII); assay type: in vivo, human
Description: […] They are given 10 mM GSNO in 1 cc saline nebulized 3×/day. Symptoms of shortness of breath resolve but pulmonary artery pressure and systemic pressure are unchanged with acute administration. After four months of therapy, pulmonary artery pressure has dropped by 5 mm of mercury and the patient's symptoms have improved. The patient is subsequently given oral GSNO at 10 μg TID and doses are empirically changed to prevent any significant change in blood pressure.

platelets = settings: doses that do not acutely drop blood pressure; cited from earlier work
[16] = test system: patient with congestive heart failure, hypotension and angina; assay: patient with congestive heart failure, hypotension and angina, intraarterial infusion (Example XIX); assay type: in vivo, human; settings: 200 nmol/kg via the brachial artery over 3 minutes
Description: A person with congestive heart failure develops hypotension and angina. S-nitrosoglutathione (200 nmol/kg) is infused via the brachial artery over 3 minutes. The angina resolves. The systolic blood pressure rises from 85 mm Hg to 100 mm Hg.

[17] = test system: patient with a transient ischemic attack; assay: patient with transient ischemic attack (Example XIII); assay type: in vivo, human
Description: A person presents with a transient ischemic attack evidenced by confusion and headache. Carotid dopplers show 98% new occlusion of the right carotid artery. Systolic blood pressure is 180 mm of mercury. They are given an infusion intravenously of S-nitrosocysteinyl glycine 10 μg with resolution of the headache. The systemic blood pressure remains 175 mm of mercury. Symptoms of headache and confusion resolve. The patient is then maintained on oral S-nitrosoglutathione 1-10 μg 3×/day with no recurrence of transient ischemic symptoms.

[18] = test system: patient receiving erythropoietin who develops chest pain; assay: patient on erythropoietin with chest pain, thiol (Example XXI); assay type: in vivo, human
Description: A person receiving erythropoietin to raise red blood count depleted by renal failure, develops chest pain (caused by increased concentration of red blood cells).

[19] = 200 nmol/kg via femoral artery, rats
[20] = 200 nmol/kg via femoral vein, rats
[21] = infusion 0.3 μm/kg per hour for a total of 1 mg
[22] = oral 0.125% in ethanol (1 cc) 3×/day

Molecule: CCOC(=O)[C@@H](N)CSN=O [S-nitrosocysteine ethyl ester]
- airway tone ([1]; inhaled 1-1,000 μg nebulized in 10 cc): does not significantly improve
- acute episode of asthma ([1]; over the following three days): brought under control
- blood pressure [2]: without a change
- chest pain [2]: alleviating chest pain

Molecule: S-nitrosohemoglobin
- heart rate (rats; [19]): increased
- mean arterial blood pressure (rats; [19]): increased
- heart rate (rats; [20]): no effect
- resting blood pressure (MAP) (rats; [20]): no effect
- blood pressure (rats; higher doses of S-nitrosothiol): fall

Molecule: N[C@@H](CSN=O)C(=O)O [S-nitrosocysteine]
- systemic blood pressure (dogs): no effect

Molecule: CCOC(=O)[N-]c1cn(N2CCOCC2)n[o+]1 [SIN1, molsidomine]
- effect on resting tone (relaxing effect) [3]: did not cause a relaxing effect
- recurrence of depression ([4]; maintained on this dose): no recurrence
- symptoms of depression ([4]; oral 10 μg per kg dose-adjusted so that blood pressure is unchanged, over three weeks): resolve
- change in mean pulmonary artery pressure (Ppa) on injection of NO donor [5]: did not cause change in Ppa
- constriction (change in Ppa) by serotonin [5]: prevented constriction
- blood pressure [6, 21]: no change
- symptoms of rest pain [6, 21]: resolve

Molecule: CCON=O [ethyl nitrite]
- symptoms of intestinal pain [7]: resolve
- exacerbation on maintenance [8]: no further exacerbation
- blood pressure (acute) [8]: does not change
- blood pressure [8]: 170/100
- incidence of rectal pain ([9]; continued therapy): decrease
- blood pressure [9, 22]: does not change
- symptoms of rectal pain [9, 22]: resolve
- symptoms of esophageal pain ([10]; 2 cc of 0.125% in ethanol 3×/day): resolve
- recurrence of symptoms ([10]; same maintenance dose): do not recur

Molecule: CNC[C@H](O)c1cccc(O)c1 [phenylephrine]
- effect on tension of ring (mouse aorta rings; phenylephrine 10^-8 molar increasing to 10^-5.5 molar): contracting effect

Molecule: O=[N+]([O-])OCC(CO[N+](=O)[O-])O[N+](=O)[O-] [nitroglycerin]
- symptoms of anxiety and stress [11]: alleviated in 4 days

Molecule: O=C(Oc1cccc(CO[N+](=O)[O-])c1)c1ccccc1O [B-NOD, 2-hydroxybenzoic acid 3-nitrooxymethylphenyl ester]
- acute lowering of mean arterial blood pressure [12]: ≤ 10%

Molecule: N[C@@H](CCC(=O)N[C@@H](CSN=O)C(=O)NCC(=O)O)C(=O)O [GSNO, S-nitrosoglutathione]
- effect on resting tone (relaxing effect) [3]: no effect on resting tone
- acute symptoms of vasospastic angina ([13]; 1-1,000 μg orally 4×/day): resolve
- blood pressure ([13]; 1-1,000 μg orally 4×/day): unchanged
- frequency of vasospastic chest pain ([13]; over the following three weeks): decreases
- effect on tension of phenylephrine-contracted ring (mouse aorta rings; S-nitrosoglutathione 1 nanomolar increasing to 10 micromolar): relaxing (contraction-attenuating) effect
- contracting response to phenylephrine after pretreatment and flushing (mouse aorta rings; phenylephrine 10^-7 to 10^-5 molar after S-nitrosoglutathione removed by flushing): does not cause a contracting response
- exacerbation on maintenance [8]: no further exacerbation
- blood pressure (acute) [8]: does not change
- blood pressure [8]: 170/100
- symptoms of coronary disease [14]: no symptoms
- frequency of asthma exacerbations ([1]; oral 10 μg Q 6 hours, continued): decline
- symptoms of shortness of breath ([15]; 10 mM in 1 cc saline nebulized 3×/day): resolve
- pulmonary artery pressure and systemic pressure ([15]; acute administration, 10 mM in 1 cc saline nebulized): unchanged
- drop of pulmonary artery pressure ([15]; after four months of therapy): 5 mm of mercury
- patient's symptoms ([15]; after four months of therapy): improved
- thromboembolic events (platelets): inhibit other thromboembolic events
- change in mean pulmonary artery pressure (Ppa) on injection of NO donor [5]: did not cause change in Ppa
- constriction (change in Ppa) by serotonin [5]: prevented constriction
- angina [16]: resolves
- systolic blood pressure after infusion ([16]; rises from 85 mm Hg): 100 mm Hg
- duration of exercise ([6]; oral 1-10 μg 3×/day): improvement
- recurrence of rest pain ([6]; oral 1-10 μg 3×/day): no recurrence
- recurrence of transient ischemic symptoms ([17]; oral 1-10 μg 3×/day maintenance): no recurrence

Molecule: N[C@@H](CSN=O)C(=O)NCC(=O)O [S-nitrosocysteinyl glycine]
- systemic blood pressure ([17]; after intravenous infusion 10 μg, systolic 180 mm of mercury before): 175 mm of mercury
- symptoms of headache and confusion ([17]; intravenous infusion 10 μg): resolve

Molecule: CC(=O)N[C@@H](CS)C(=O)O [N-acetylcysteine]
- frequency of angina ([18]; 600 ng, PO, TID): decreases
- blood pressure ([18]; 600 ng, PO, TID, over three weeks): drops
- blood pressure ([18]; infusion 50 ng/kg): without a change
- chest pain ([18]; infusion 50 ng/kg): alleviating their chest pain
